From patent US11440880B2, “Thalidomide analogs and methods of use” (The USA, as represented by the Secretary, Department of …, priority 2015, dated 2022)
“Also recorded” adds a separate entry of the source.

Key:
WT zebrafish embryos = assay: WT zebrafish embryo development / teratogenicity; format: in vivo, zebrafish (Danio rerio); conditions: in words; at concentrations active in fli1:EGFP or mpo:GFP assays
Description: To determine the effects of the candidate compounds on embryonic development, two in vivo model systems (developing zebrafish and chicken embryos) were utilized.
Malformations in the development of the zebrafish embryo were noted, including inhibition of eye, otic vesicle and fin development (FIGS. 7A-7F). […] Embryos were screened at concentrations previously determined, in this study, to be anti-angiogenic or anti-inflammatory in the fli1:EGFP and mpo:GFP assays respectively.
(§1) Concentrations used in the WT zebrafish and chicken embryo assays to assess for teratogenesis, were equal to or higher than those utilized in the fil1:EGFP and mpo:GFP zebrafish assays

[1] = tested on: mpo:GFP zebrafish embryos (neutrophil migration to the wound site); assay: mpo:GFP zebrafish fin-clip neutrophil migration (inflammation) assay; format: in vivo; design: mpo:GFP inflammation n (survived/tested): concentration or dose not given beside the values; conditions: for minimal effective concentration: Danio rerio, Neutrophil, lowest concentration producing an effect, compounds not producing an effect shown at the highest evaluated concentration; for mpo:GFP inflammation n (survived/tested): embryos survived/tested at the concentration given
Summary of the method: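 Tg(mpo::EGFP) larvae tail-fin clipped (dorsal third removed) at 72 hpf, then immersed in compound or vehicle. Neutrophils migrating to the wound site counted from images 24 h later; at least 50% reduction scored as anti-inflammatory. Viability and morphology also assessed.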

[2] = tested on: fli1:EGFP zebrafish embryos (intersegmental vessel growth); assay: fli1:EGFP zebrafish embryo angiogenesis assay; format: in vivo; design: fli1:EGFP angiogenesis n (survived/tested): concentration or dose not given beside the values; conditions: for minimal effective concentration: Danio rerio, lowest concentration producing an effect, compounds not producing an effect shown at the highest evaluated concentration; for fli1:EGFP angiogenesis n (survived/tested): embryos alive after 24 hours of exposure
Summary of the method: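 fli1:EGFP embryos grown 24 hpf, dechorionated and exposed to compound or vehicle over a range of concentrations for up to 24 h, with CPS49 as positive control. Imaged at 48 hpf for intersegmental vessel formation and growth; survival after 24 h exposure recorded, and values reflect the lowest concentration producing an effect.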

chicken embryos = assay: Chicken embryo development / teratogenicity; format: in vivo, white leghorn chicken; conditions: in words; applied at HH stage 17-18
Protocol: Chicken Embryology: Fertilized white leghorn chicken embryos were incubated at 38° C. and staged according to Hamburger and Hamilton (HH) stages of development (1951). Embryos were tested at HH stage 17-18 (day 2.5). Following membrane removal, test compounds or vehicle control solutions were applied globally over the embryo. The eggs were sealed and the development of the embryos was monitored up to HH stage 30 (E9).
Compounds of interest were screened in chicken embryos (FIGS. 7I-7P).
as §1

[3] = tested on: nitrite levels in the culture media; assay: Nitrite level (Griess Reagent System) in LPS-challenged RAW 264.7 cells; format: cell-based, mouse; design: key: NS=not significant; a “+” sign=anti-inflammatory or increased cell numbers; a “−” sign=cell toxicity or pro-inflammatory; conditions: LPS 30 or 60 ng/mL, 24 h
Summary of the method: (§2)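 RAW 264.7 cells pretreated 1 h with compound in DMSO vehicle, then challenged with LPS (30 or 60 ng/mL) for 24 h at 37° C. Conditioned-media nitrite by Griess (520 nm, sodium nitrite standard curve, 1.5 μM cutoff) in μM; mouse TNF-α by ELISA as pg/ml or % change from control.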

TNF-α protein = TNF-α protein level (ELISA) in LPS-challenged RAW 264.7 cells; format: cell-based, mouse; design: key: NS=not significant; a “+” sign=anti-inflammatory or increased cell numbers; a “−” sign=cell toxicity or pro-inflammatory; conditions: LPS 30 or 60 ng/mL, 24 h
Summary of the method: as §2

RAW 264.7 cells = assay: Cell viability (CellTiter 96 AQueous One) of LPS-challenged RAW 264.7 cells; format: cell-based, mouse; design: key: NS=not significant; a “+” sign=anti-inflammatory or increased cell numbers; a “−” sign=cell toxicity or pro-inflammatory
Summary of the method: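 RAW 264.7 murine macrophages pretreated 1 h with compound or DMSO vehicle, then challenged with LPS (serotype 055:B5) at 30 or 60 ng/mL final for 24 h. After media replacement, viability measured by tetrazolium (MTS) conversion, absorbance at 490 nm, reported as O.D.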

[4] = tested on: human saphenous vein sections (microvessel outgrowth); assay: Human saphenous vein assay of angiogenesis (ex vivo); format: cell-based; conditions: positive control, 10 days of incubation
Protocol: The saphenous vein was cleaned of subcutaneous tissue and embedded in Matrigel® matrix as previously described. After 10 days of incubation, the transverse sections of the veins were imaged. The outgrowth between the vehicle and no treatment (media) control was equivalent (106.65%±20.14, n=2 and 103.35%±4.06, n=2 respectively; FIGS. 13A and 13B).

## O=C1c2ccccc2C(=S)N1C1CCC(=S)NC1=S (stereo not drawn) [Compound 4]
WT zebrafish embryos
  effect on development / mortality of zebrafish embryos: defects and high mortality rates; also recorded: induced defects (e.g., microophthalmia and fin malformation)
[1]
  minimal effective concentration: 10 µg/mL
  mpo:GFP inflammation n (survived/tested): 19/23
[2]
  minimal effective concentration: 1.5 µg/mL
  fli1:EGFP angiogenesis n (survived/tested): 4/11
[2]; exposure from 24 hpf, imaged at 48 hpf
  concentration at which anti-angiogenic activity was shown: 1.5 µg/mL
Chicken embryos
  effect on development / mortality of chicken embryos: defects and high mortality rates

## Nc1ccc2c(c1)C(=O)N(C1CCC(=O)NC1=O)C2=O (stereo not drawn) [Compound 11]
[1]
  minimal effective concentration: 10 µg/mL
  mpo:GFP inflammation n (survived/tested): 16/22
[2]
  minimal effective concentration: 50 µg/mL
  fli1:EGFP angiogenesis n (survived/tested): 24/43
Chicken embryos
  effect on development / mortality of chicken embryos: missing digits in the hindlimb; also recorded: limb reduction defect

## O=C1NC(=S)CCC1N1C(=O)c2ccc(Cl)cc2C1=O (stereo not drawn) [Compound 23]
[1]
  minimal effective concentration: 10 µg/mL
  mpo:GFP inflammation n (survived/tested): 13/35
[2]
  minimal effective concentration: 10 µg/mL
  fli1:EGFP angiogenesis n (survived/tested): 23/30
Chicken embryos
  effect on development / mortality of chicken embryos: constriction in vasculature (white arrow) and necrosis (black arrow) of the chorioallantoic membrane

## O=C1c2cccc([N+](=O)[O-])c2CN1C12CC3CC(CC(C3)C1)C2 [Compound 76, 2,3-Dihydro-4-nitro-2-(tricyclo[3.3.1.1^3,7]dec-1-yl)-1H-isoindol-1-one]
[3]; 1 μM
  Nitrite: NS
[3]; 10 μM
  Nitrite: +
[3]; 30 μM
  Nitrite: +
TNF-α protein; 1 μM
  TNF-α: NS
TNF-α protein; 10 μM
  TNF-α: NS
TNF-α protein; 30 μM
  TNF-α: +
RAW 264.7 cells; 1 μM
  Viability: NS
RAW 264.7 cells; 10 μM
  Viability: NS
RAW 264.7 cells; 30 μM
  Viability: NS
[1]
  minimal effective concentration: 100 µg/mL
  mpo:GFP inflammation n (survived/tested): 5/11
[2]
  minimal effective concentration: 10 µg/mL
  fli1:EGFP angiogenesis n (survived/tested): 28/32

## CC(N1Cc2c(cccc2[N+](=O)[O-])C1=O)C12CC3CC(CC(C3)C1)C2 (stereo not drawn) [Compound 80]
[3]; 1 μM
  Nitrite: NS
[3]; 10 μM
  Nitrite: +
[3]; 30 μM
  Nitrite: +
TNF-α protein; 1 μM
  TNF-α: NS
TNF-α protein; 10 μM
  TNF-α: +
TNF-α protein; 30 μM
  TNF-α: +
RAW 264.7 cells; 1 μM
  Viability: NS
RAW 264.7 cells; 10 μM
  Viability: −
RAW 264.7 cells; 30 μM
  Viability: NS
Chicken embryos
  effect on development / mortality of chicken embryos: microophthalmia (asterisk), limb reduction (white arrow), and hemorrhaging throughout the body

## O=C1c2cccc([N+](=O)[O-])c2CN1C1C2CC3CC(C2)CC1C3 (stereo not drawn) [Compound 82]
[3]; 1 μM
  Nitrite: +
[3]; 10 μM
  Nitrite: +
[3]; 30 μM
  Nitrite: +
TNF-α protein; 1 μM
  TNF-α: NS
TNF-α protein; 10 μM
  TNF-α: +
TNF-α protein; 30 μM
  TNF-α: +
RAW 264.7 cells; 1 μM
  Viability: NS
RAW 264.7 cells; 10 μM
  Viability: −
RAW 264.7 cells; 30 μM
  Viability: −
[1]
  minimal effective concentration: 5 µg/mL
  mpo:GFP inflammation n (survived/tested): 8/22
[2]
  minimal effective concentration: 5 µg/mL
  fli1:EGFP angiogenesis n (survived/tested): 18/27

## Nc1cccc2c1CN(C1C3CC4CC(C3)CC1C4)C2=O (stereo not drawn) [Compound 83]
[3]; 1 μM
  Nitrite: NS
[3]; 10 μM
  Nitrite: +
[3]; 30 μM
  Nitrite: +
TNF-α protein; 1 μM
  TNF-α: NS
TNF-α protein; 10 μM
  TNF-α: NS
TNF-α protein; 30 μM
  TNF-α: NS
RAW 264.7 cells; 1 μM
  Viability: NS
RAW 264.7 cells; 10 μM
  Viability: NS
RAW 264.7 cells; 30 μM
  Viability: NS
[1]
  minimal effective concentration: 20 µg/mL
  mpo:GFP inflammation n (survived/tested): 6/23
[2]
  minimal effective concentration: 20 µg/mL
  fli1:EGFP angiogenesis n (survived/tested): 3/12

## O=C1c2cccc([N+](=O)[O-])c2CN1C12CC3CC(CC1C3)C2 [Compound 84]
[3]; 1 μM
  Nitrite: NS
[3]; 10 μM
  Nitrite: +
[3]; 30 μM
  Nitrite: +
TNF-α protein; 1 μM
  TNF-α: NS
TNF-α protein; 10 μM
  TNF-α: NS
TNF-α protein; 30 μM
  TNF-α: NS
RAW 264.7 cells; 1 μM
  Viability: NS
RAW 264.7 cells; 10 μM
  Viability: NS
RAW 264.7 cells; 30 μM
  Viability: NS
[1]
  minimal effective concentration: 10 µg/mL
  mpo:GFP inflammation n (survived/tested): 12/21
[2]
  minimal effective concentration: 50 µg/mL
  fli1:EGFP angiogenesis n (survived/tested): 2/11

## Nc1cccc2c1CN(C13CC4CC(CC1C4)C3)C2=O [Compound 85]
[3]; 1 μM
  Nitrite: NS
[3]; 10 μM
  Nitrite: NS
[3]; 30 μM
  Nitrite: −
TNF-α protein; 1 μM
  TNF-α: NS
TNF-α protein; 10 μM
  TNF-α: NS
TNF-α protein; 30 μM
  TNF-α: NS
RAW 264.7 cells; 1 μM
  Viability: NS
RAW 264.7 cells; 10 μM
  Viability: NS
RAW 264.7 cells; 30 μM
  Viability: NS
[1]
  minimal effective concentration: 100 µg/mL
  mpo:GFP inflammation n (survived/tested): 11/20
[2]
  minimal effective concentration: 10 µg/mL
  fli1:EGFP angiogenesis n (survived/tested): 7/20

## CO[C@@H]1[C@H](OC(=O)NC(=O)CCl)CC[C@]2(CO2)[C@H]1[C@@]1(C)O[C@@H]1CC=C(C)C [TNP-470, (Chloracetyl) carbamic acid (3R,4S,5S,6R)-5-methoxy-4-[(2R,3R)-2-methyl-3-(3-methyl-2-butenyl)oxiranyl]-1-oxaspiro[2.5]oct-6-yl ester, reference compound]
[4]
  vessel outgrowth: 9.44%±1.65
